Results reported in patent US20100267561A1, “HERBICIDAL PYRIDAZINONE DERIVATIVES” (priority 2007, published 2010).

Key:
Assay type in all cases: in vivo
[1] = test system: common ragweed (Ambrosia elation); assay: Test E pre-/postemergence plant response; settings: scale 0 to 100
Outline: (§1)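 Formulated in a non-phytotoxic solvent mixture containing surfactant, compound was applied to soil at planting or sprayed on emerged plants at the 1- to 4-leaf stage. Visual comparison with controls followed 14 to 21 days in the greenhouse; 0 = no effect, 100 = complete control.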

[2] = test system: spanishneedles (Bidens bipinnata); assay: Test E pre-/postemergence plant response; settings: scale 0 to 100
Outline: as §1

[3] = test system: field bindweed (Convolvulus arvensis); assay: Test E pre-/postemergence plant response; settings: scale 0 to 100
Outline: as §1

[4] = test system: Canada horseweed (Conyza canadensis); assay: Test E pre-/postemergence plant response; settings: Postemergence, scale 0 to 100
Outline: as §1

[5] = test system: water-seeded rice seedlings (Oryza sativa cv. ‘Japonica—M202’); assay: Test D flooded paddy plant response; settings: Flood, scale 0 to 100 (0 no effect, 100 complete control), 21 days
From the text: (§2) Three plastic pots (ca. 16-cm diameter) for each application rate were partially filled with sterilized Tama silt loam soil comprising a 35:50:15 ratio of sand, silt and clay and 2.6% organic matter. Separate plantings for each of the three pots were as follows. Seeds from the U.S. of ducksalad (Heteranthera limosa), umbrella sedge (Cyperus difformis) and purple redstem (Ammannia coccinea), were planted into one 16-cm pot for each rate. Seeds from the U.S. of rice flatsedge (Cyperus iria), bearded (Brdd.) sprangletop (Leptochloa fascicularis), one stand of 9 or 10 water-seeded rice seedlings (Oryza sativa cv. ‘Japonica—M202’), and one stand of 6 transplanted rice seedlings (Oryza sativa cv. ‘Japonica—M202’) were planted into one 16-cm pot for each rate. Seeds from the U.S. of barnyardgrass (Echinochloa crus-galli), late watergrass (Echinochloa oryzicola), early watergrass (Echinochloa oryzoides) and junglerice (Echinochloa colona) were planted into one 16-cm pot for each rate. Plantings were sequential so that crop and weed species were at the 2.0 to 2.5-leaf stage at time of treatment.
(§3) Potted plants were grown in a greenhouse with day/night temperature settings of 30/27° C., and supplemental balanced lighting was provided to maintain a 16-hour photoperiod. Test pots were maintained in the greenhouse until test completion.
(§4) At time of treatment, test pots were flooded to 3 cm above the soil surface, treated by application of test compounds directly to the paddy water, and then maintained at that water depth for the duration of the test. Effects of treatments on rice and weeds were visually evaluated by comparison to untreated controls after 21 days. Plant response ratings, summarized in Table D, are based on a scale of 0 to 100 where 0 is no effect and 100 is complete control. A dash (-) response means no test result.

[6] = test system: purple redstem (Ammannia coccinea); assay: Test D flooded paddy plant response; settings: Flood, scale 0 to 100 (0 no effect, 100 complete control), 21 days
From the text: as §2, §3, §4

[7] = test system: barnyardgrass (Echinochloa crus-galli); assay: Test D flooded paddy plant response; settings: Flood, scale 0 to 100 (0 no effect, 100 complete control), 21 days
From the text: as §2, §3, §4

[8] = test system: umbrella sedge (Cyperus difformis); assay: Test D flooded paddy plant response; settings: Flood, scale 0 to 100 (0 no effect, 100 complete control), 21 days
From the text: as §2, §3, §4

[9] = test system: late watergrass (Echinochloa oryzicola); assay: Test D flooded paddy plant response; settings: Flood, scale 0 to 100 (0 no effect, 100 complete control), 21 days
From the text: as §2, §3, §4

[10] = test system: ducksalad (Heteranthera limosa); assay: Test D flooded paddy plant response; settings: Flood, scale 0 to 100 (0 no effect, 100 complete control), 21 days
From the text: as §2, §3, §4

[11] = test system: junglerice (Echinochloa colona); assay: Test D flooded paddy plant response; settings: Flood, scale 0 to 100 (0 no effect, 100 complete control), 21 days
From the text: as §2, §3, §4

[12] = test system: early watergrass (Echinochloa oryzoides); assay: Test D flooded paddy plant response; settings: Flood, scale 0 to 100 (0 no effect, 100 complete control), 21 days
From the text: as §2, §3, §4

[13] = test system: tropical (T.) spiderwort (Commelina benghalensis); assay: Test E pre-/postemergence plant response; settings: scale 0 to 100
Outline: as §1

## CCc1cc(-c2ccc(C(F)(F)F)cc2)nn1-c1c(OC(=O)OC(C)C)cnn(C)c1=O [Compound 12]
[1]; 4 g ai/ha, Postemergence
  Plant response rating, Ragweed: 0
[1]; 31 g ai/ha, Preemergence
  Plant response rating, Ragweed: 0
[1]; Postemergence, 8 g ai/ha
  Plant response rating, Ragweed: 0
[1]; Postemergence, 31 g ai/ha
  Plant response rating, Ragweed: 0
[1]; Preemergence, 4 g ai/ha
  Plant response rating, Ragweed: 0
[2]; 4 g ai/ha, Postemergence
  Plant response rating, Spanishneedles: 0
[2]; 31 g ai/ha, Preemergence
  Plant response rating, Spanishneedles: 0
[2]; Postemergence, 8 g ai/ha
  Plant response rating, Spanishneedles: 0
[2]; Postemergence, 31 g ai/ha
  Plant response rating, Spanishneedles: 0
[3]; 4 g ai/ha, Postemergence
  Plant response rating, Field Bindweed: 0
[3]; 8 g ai/ha, Preemergence
  Plant response rating, Field Bindweed: 0
[3]; 31 g ai/ha, Preemergence
  Plant response rating, Field Bindweed: 0
[3]; Postemergence, 8 g ai/ha
  Plant response rating, Field Bindweed: 0
[3]; Postemergence, 31 g ai/ha
  Plant response rating, Field Bindweed: 0
[3]; Preemergence, 4 g ai/ha
  Plant response rating, Field Bindweed: 0
[4]; 4 g ai/ha
  Plant response rating, Horseweed: 0
[4]; 8 g ai/ha
  Plant response rating, Horseweed: 0
[4]; 31 g ai/ha
  Plant response rating, Horseweed: 0

## CCc1cc(-c2ccc(Cl)cc2)nn1-c1c(O)cnn(C)c1=O [Compound 21]
[5]; 16 g ai/ha
  Plant response rating, Rice, Water Seeded: 0
[5]; 32 g ai/ha
  Plant response rating, Rice, Water Seeded: 20
[5]; 64 g ai/ha
  Plant response rating, Rice, Water Seeded: 35
[5]; 125 g ai/ha
  Plant response rating, Rice, Water Seeded: 65
[5]; 250 g ai/ha
  Plant response rating, Rice, Water Seeded: 75
[6]; 16 g ai/ha
  Plant response rating, Redstem, Purple: 0
[6]; 32 g ai/ha
  Plant response rating, Redstem, Purple: 0
[6]; 64 g ai/ha
  Plant response rating, Redstem, Purple: 0
[6]; 125 g ai/ha
  Plant response rating, Redstem, Purple: 0
[6]; 250 g ai/ha
  Plant response rating, Redstem, Purple: 0
[7]; 16 g ai/ha
  Plant response rating, Barnyardgrass: 0
[7]; 32 g ai/ha
  Plant response rating, Barnyardgrass: 60
[7]; 64 g ai/ha
  Plant response rating, Barnyardgrass: 100
[7]; 125 g ai/ha
  Plant response rating, Barnyardgrass: 100
[7]; 250 g ai/ha
  Plant response rating, Barnyardgrass: 100
[8]; 16 g ai/ha
  Plant response rating, Sedge, Umbrella: 0
[8]; 32 g ai/ha
  Plant response rating, Sedge, Umbrella: 0
[8]; 64 g ai/ha
  Plant response rating, Sedge, Umbrella: 0
[8]; 125 g ai/ha
  Plant response rating, Sedge, Umbrella: 0
[8]; 250 g ai/ha
  Plant response rating, Sedge, Umbrella: 0
[9]; 16 g ai/ha
  Plant response rating, Watergrass, Late: 0
[9]; 32 g ai/ha
  Plant response rating, Watergrass, Late: 30
[9]; 64 g ai/ha
  Plant response rating, Watergrass, Late: 60
[9]; 125 g ai/ha
  Plant response rating, Watergrass, Late: 100
[9]; 250 g ai/ha
  Plant response rating, Watergrass, Late: 100
[10]; 16 g ai/ha
  Plant response rating, Ducksalad: 0
[10]; 32 g ai/ha
  Plant response rating, Ducksalad: 0
[10]; 64 g ai/ha
  Plant response rating, Ducksalad: 0
[10]; 125 g ai/ha
  Plant response rating, Ducksalad: 0
[10]; 250 g ai/ha
  Plant response rating, Ducksalad: 0
[11]; 16 g ai/ha
  Plant response rating, Junglerice: 0
[11]; 32 g ai/ha
  Plant response rating, Junglerice: 70
[11]; 64 g ai/ha
  Plant response rating, Junglerice: 100
[11]; 125 g ai/ha
  Plant response rating, Junglerice: 100
[11]; 250 g ai/ha
  Plant response rating, Junglerice: 100
[12]; 16 g ai/ha
  Plant response rating, Watergrass, Early: 0
[12]; 32 g ai/ha
  Plant response rating, Watergrass, Early: 40
[12]; 64 g ai/ha
  Plant response rating, Watergrass, Early: 65
[12]; 125 g ai/ha
  Plant response rating, Watergrass, Early: 100
[12]; 250 g ai/ha
  Plant response rating, Watergrass, Early: 100
[13]; 16 g ai/ha, Preemergence
  Plant response rating, Spiderwort, T.: 0
[13]; 31 g ai/ha, Preemergence
  Plant response rating, Spiderwort, T.: 0
[13]; 62 g ai/ha, Preemergence
  Plant response rating, Spiderwort, T.: 0
[13]; Postemergence, 8 g ai/ha
  Plant response rating, Spiderwort, T.: 0
[13]; Postemergence, 16 g ai/ha
  Plant response rating, Spiderwort, T.: 0
[13]; Postemergence, 31 g ai/ha
  Plant response rating, Spiderwort, T.: 0
[13]; Postemergence, 62 g ai/ha
  Plant response rating, Spiderwort, T.: 0

## Cc1cc(-c2ccc(Cl)cc2)nn1-c1c(OS(=O)(=O)c2ccccc2)cnn(C)c1=O [Compound 35]
[13]; 16 g ai/ha, Preemergence
  Plant response rating, Spiderwort, T.: 0
[13]; 31 g ai/ha, Preemergence
  Plant response rating, Spiderwort, T.: 0
[13]; 62 g ai/ha, Preemergence
  Plant response rating, Spiderwort, T.: 0
[13]; Postemergence, 8 g ai/ha
  Plant response rating, Spiderwort, T.: 0
[13]; Postemergence, 16 g ai/ha
  Plant response rating, Spiderwort, T.: 0
[13]; Postemergence, 31 g ai/ha
  Plant response rating, Spiderwort, T.: 0
[13]; Postemergence, 62 g ai/ha
  Plant response rating, Spiderwort, T.: 0

## CCCc1cc(-c2ccc(Cl)cc2)nn1-c1c(O)cnn(C)c1=O [Compound 43]
[5]; 16 g ai/ha
  Plant response rating, Rice, Water Seeded: 0
[5]; 32 g ai/ha
  Plant response rating, Rice, Water Seeded: 0
[5]; 64 g ai/ha
  Plant response rating, Rice, Water Seeded: 0
[5]; 125 g ai/ha
  Plant response rating, Rice, Water Seeded: 30
[5]; 250 g ai/ha
  Plant response rating, Rice, Water Seeded: 35
[6]; 16 g ai/ha
  Plant response rating, Redstem, Purple: 0
[6]; 32 g ai/ha
  Plant response rating, Redstem, Purple: 0
[6]; 64 g ai/ha
  Plant response rating, Redstem, Purple: 0
[6]; 125 g ai/ha
  Plant response rating, Redstem, Purple: 0
[6]; 250 g ai/ha
  Plant response rating, Redstem, Purple: 0
[7]; 16 g ai/ha
  Plant response rating, Barnyardgrass: 0
[7]; 32 g ai/ha
  Plant response rating, Barnyardgrass: 20
[7]; 64 g ai/ha
  Plant response rating, Barnyardgrass: 60
[7]; 125 g ai/ha
  Plant response rating, Barnyardgrass: 100
[7]; 250 g ai/ha
  Plant response rating, Barnyardgrass: 100
[8]; 16 g ai/ha
  Plant response rating, Sedge, Umbrella: 0
[8]; 32 g ai/ha
  Plant response rating, Sedge, Umbrella: 0
[8]; 64 g ai/ha
  Plant response rating, Sedge, Umbrella: 0
[8]; 125 g ai/ha
  Plant response rating, Sedge, Umbrella: 0
[8]; 250 g ai/ha
  Plant response rating, Sedge, Umbrella: 0
[9]; 16 g ai/ha
  Plant response rating, Watergrass, Late: 0
[9]; 32 g ai/ha
  Plant response rating, Watergrass, Late: 0
[9]; 64 g ai/ha
  Plant response rating, Watergrass, Late: 30
[9]; 125 g ai/ha
  Plant response rating, Watergrass, Late: 65
[9]; 250 g ai/ha
  Plant response rating, Watergrass, Late: 100
[10]; 16 g ai/ha
  Plant response rating, Ducksalad: 0
[10]; 32 g ai/ha
  Plant response rating, Ducksalad: 0
[10]; 64 g ai/ha
  Plant response rating, Ducksalad: 0
[10]; 125 g ai/ha
  Plant response rating, Ducksalad: 0
[10]; 250 g ai/ha
  Plant response rating, Ducksalad: 0
[11]; 16 g ai/ha
  Plant response rating, Junglerice: 0
[11]; 32 g ai/ha
  Plant response rating, Junglerice: 0
[11]; 64 g ai/ha
  Plant response rating, Junglerice: 60
[11]; 125 g ai/ha
  Plant response rating, Junglerice: 100
[11]; 250 g ai/ha
  Plant response rating, Junglerice: 100
[12]; 16 g ai/ha
  Plant response rating, Watergrass, Early: 0
[12]; 32 g ai/ha
  Plant response rating, Watergrass, Early: 0
[12]; 64 g ai/ha
  Plant response rating, Watergrass, Early: 60
[12]; 125 g ai/ha
  Plant response rating, Watergrass, Early: 70
[12]; 250 g ai/ha
  Plant response rating, Watergrass, Early: 100
